According to patent US8658639B2, “N-substituted-cyclic amino derivative” (Dainippon Sumitomo Pharma Co., Ltd, priority 2009, dated 2014):
Structures can show the parent of a compound that is named as a salt.

Each compound was assayed against T1, Recombinant human renin (Homo sapiens, UniProt P00797) (assay: In vitro renin inhibitory activity assay). Conditions: recombinant human renin 4.2 ng/mL, substrate 4 μM, 37° C., one hour, pH 7.4.
T1 sequence (P00797 67-406): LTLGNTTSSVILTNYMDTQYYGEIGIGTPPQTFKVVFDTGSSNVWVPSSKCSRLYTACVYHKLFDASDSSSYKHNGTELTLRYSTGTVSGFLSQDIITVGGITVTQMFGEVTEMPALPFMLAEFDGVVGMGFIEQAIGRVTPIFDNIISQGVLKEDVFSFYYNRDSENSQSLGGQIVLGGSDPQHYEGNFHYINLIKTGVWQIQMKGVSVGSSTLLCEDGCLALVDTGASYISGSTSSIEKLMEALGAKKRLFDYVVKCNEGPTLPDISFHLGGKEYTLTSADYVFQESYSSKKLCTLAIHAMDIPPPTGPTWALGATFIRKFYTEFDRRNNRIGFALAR
Assay type: biochemical
Protocol: Experiment 1: In Vitro Renin Inhibitory Activity Assay
Recombinant human renin (4.2 ng/mL) was reacted in 0.1M HEPES buffer (pH 7.4) containing 0.1M NaCl, 1 mM EDTA and 0.1 mg/mL BSA together with a substrate and a test compound at 37° C. for one hour. As the substrate, Arg-Glu(EDANS)-Ile-His-Pro-Phe-His-Leu-Val-Ile-His-Thr-Lys(DABCYL)-Arg (SEQ ID NO: 1) or DABCYL-γ-Abu-Ile-His-Pro-Phe-His-Leu-Val-Ile-His-Thr-EDANS (SEQ ID NO: 2) was added in such an amount so that the final concentration thereof became 4 μM. The elevated fluorescence intensity at the exciting wavelength 340 nm and the fluorescence wavelength 500 nm was measured by a fluorescence plate reader. The concentration of a test compound to be needed to inhibit an enzyme activity in the presence of a test compound in several concentrations by 50% was calculated as an IC50 value. The test compounds were diluted in DMSO and used in this Experiment.

Structure (SMILES) | IC50 [nM]
CCC(=O)NCCN1C(=O)C(C)(C)Oc2cc(C)c(C(=O)N(C(C)C)C3CCCN(C(=O)OC(C)OC(=O)C4CCOCC4)C3)cc21 (single isomer, unassigned) [Example 88] | 9.6
CCC(=O)NCCN1C(=O)C(C)(C)Oc2cc(C)c(C(=O)N(C(C)C)[C@@H]3CCCN(C(=O)OC(C)OC(=O)C(C)C)C3)cc21 (stereo partly drawn) [Example 1, 1-(Isobutyryloxy)ethyl (3R)-3-[isopropyl({2,2,7-trimethyl-3-oxo-4-[2-(propionylamino)ethyl]-3,4-dihydro-2H-1,4-benzoxazin-6-yl}carbonyl)amino]piperidine-1-carboxylate] | 160
CCC(=O)NCCN1C(=O)C(C)(C)Oc2cc(C)c(C(=O)N(C(C)C)[C@@H]3CCCN(C(=O)OCOC(=O)C(C)C)C3)cc21 [Example 4] | 42
CCC(=O)NCCN1C(=O)C(C)(C)Oc2cc(C)c(C(=O)N(C(C)C)[C@@H]3CCCN(C(=O)OCc4oc(=O)oc4-c4ccccc4)C3)cc21 [Example 7] | 1.3
CCC(=O)NCCN1C(=O)C(C)(C)Oc2cc(C)c(C(=O)N(C(C)C)C3CCCN(C(=O)OC(C)OC(=O)OC(C)C)C3)cc21 (centres unmarked) [Example 8] | 410
CCC(=O)NCCN1C(=O)C(C)(C)Oc2cc(C)c(C(=O)N(C(C)C)[C@@H]3CCCN(C(=O)OCOC(=O)OC)C3)cc21 [Example 9] | 140
CCC(=O)NCCN1C(=O)C(C)(C)Oc2cc(C)c(C(=O)N(C(C)C)[C@@H]3CCCN(C(=O)OCOC(=O)OCC4CC4)C3)cc21 [Example 11] | 460
CCC(=O)NCCN1C(=O)C(C)(C)Oc2cc(C)c(C(=O)N(C(C)C)[C@@H]3CCCN(C(=O)OCOC(=O)OC4CCC4)C3)cc21 [Example 12] | 160
CCC(=O)NCCN1C(=O)C(C)(C)Oc2cc(C)c(C(=O)N(C(C)C)[C@@H]3CCCN(C(=O)OCOC(=O)OC4CCOCC4)C3)cc21 [Example 13] | 5.1
CCC(=O)NCCN1C(=O)C(C)(C)Oc2cc(C)c(C(=O)N(C(C)C)C3CCCN(C(=O)OC(C)OC(=O)CC)C3)cc21 (centres unmarked) [Example 18] | 3.6
CCC(=O)NCCN1C(=O)C(C)(C)Oc2cc(C)c(C(=O)N(C(C)C)C3CCCN(C(=O)OC(OC(C)=O)C(C)C)C3)cc21 (centres unmarked) [Example 19] | 11
CCC(=O)NCCN1C(=O)C(C)(C)Oc2cc(C)c(C(=O)N(C(C)C)C3CCCN(C(=O)OC(OC(=O)CC)C(C)C)C3)cc21 (centres unmarked) [Example 20] | 91
CCC(=O)NCCN1C(=O)C(C)(C)Oc2cc(C)c(C(=O)N(C(C)C)[C@@H]3CCCN(C(=O)OC(C)(C)OC(C)=O)C3)cc21 [Example 21, 1-(Acetyloxy)-1-methylethyl (3R)-3-[isopropyl({2,2,7-trimethyl-3-oxo-4-[2-(propionylamino)ethyl]-3,4-dihydro-2H-1,4-benzoxazin-6-yl}carbonyl)amino]piperidine-1-carboxylate] | 62
CCC(=O)NCCN1C(=O)C(C)(C)Oc2cc(C(F)(F)F)c(C(=O)N(C(C)C)[C@@H]3CCCN(C(=O)[C@@H](N)C(C)C)C3)cc21 [Example 22, N-Isopropyl-2,2-dimethyl-3-oxo-4-[2-(propionylamino)ethyl]-7-(trifluoromethyl)-N-[(3R)-1-L-valylpiperidin-3-yl]-3,4-dihydro-2H-1,4-benzoxazine-6-carboxamide hydrochloride] | 85
CCC(=O)NCCN1C(=O)C(C)(C)Oc2cc(C(F)(F)F)c(C(=O)N(C(C)C)C3CCCN(C(=O)OC(C)OC(=O)C(C)C)C3)cc21 (centres unmarked) [Example 26] | 21
CCC(=O)NCCN1C(=O)C(C)(C)Sc2cc(C(F)(F)F)c(C(=O)N(C(C)C)[C@@H]3CCCN(C(=O)OCc4oc(=O)oc4C)C3)cc21 [Example 30, (5-Methyl-2-oxo-1,3-dioxol-4-yl)methyl (3R)-3-[{[2,2-dimethyl-3-oxo-4-[2-(propionylamino)-ethyl]-7-(trifluoromethyl)-3,4-dihydro-2H-1,4-benzothiazin-6-yl]carbonyl}(isopropyl)amino]-piperidine-1-carboxylate] | 2.2
CCC(=O)NCCN1C(=O)C(C)(C)Oc2cc(C(F)(F)F)c(C(=O)N(C(C)C)[C@@H]3CCCN(Cc4oc(=O)oc4C)C3)cc21 [Example 31, N-Isopropyl-2,2-dimethyl-N-{(3R)-1-[(5-methyl-2-oxo-1,3-dioxol-4-yl)methyl]piperidin-3-yl}-3-oxo-4-[2-(propionylamino)ethyl]-7-(trifluoromethyl)-3,4-dihydro-2H-1,4-benzoxazine-6-carboxamide] | 0.38
CCC(=O)NCCN1C(=O)C2(CCC2)Oc2cc(C)c(C(=O)N(C(C)C)C3CCCN(C(=O)OC(C)OC(C)=O)C3)cc21 (centres unmarked) [Example 33] | 1.2
CCOC(=O)OC(C)OC(=O)N1CCCC(N(C(=O)c2cc3c(cc2C)OC2(CCC2)C(=O)N3CCNC(=O)CC)C(C)C)C1 (centres unmarked) [Example 34] | 140
CCC(=O)NCCN1C(=O)C2(CCC2)Oc2cc(C)c(C(=O)N(C(C)C)C3CCCN(C(=O)OC(OC(C)=O)C(C)C)C3)cc21 (centres unmarked) [Example 35] | 2.7
CCOC(=O)OC(C)OC(=O)N1CCCC(N(C(=O)c2cc3c(cc2C(F)(F)F)OC(C)(COC)C(=O)N3CCNC(=O)CC)C(C)C)C1 (centres unmarked) [Example 38] | 58

Structure (SMILES) | IC50 [nM]
Cc1cc2c(cc1C(=O)N(C(C)C)[C@@H]1CCCN(C(=O)OCc3oc(=O)oc3C)C1)N(CCNC(=O)C(F)F)C(=O)C1(CC1)O2 [Example 39] | 3.6
CCC(=O)NCCN1C(=O)C2(CC2)Oc2cc(C)c(C(=O)N(C(C)C)[C@@H]3CCCN(C(=O)OCc4oc(=O)oc4C)C3)cc21 [Example 40] | 2.6
CCC(=O)NCCN1C(=O)C2(CC2)Oc2cc(C)c(C(=O)N(C(C)C)C3CCCN(C(=O)OC(C)OC(=O)CC)C3)cc21 (centres unmarked) [Example 41] | 68
CCC(=O)NCCN1C(=O)C2(CC2)Oc2cc(C)c(C(=O)N(C(C)C)C3CCCN(C(=O)OC(C)OC(=O)C(C)C)C3)cc21 (centres unmarked) [Example 42] | 15
CCC(=O)NCCN1C(=O)C2(CC2)Oc2cc(C)c(C(=O)N(C(C)C)C3CCCN(C(=O)OC(C)OC(=O)C4CCOCC4)C3)cc21 (centres unmarked) [Example 43] | 69
Cc1cc2c(cc1C(=O)N(C(C)C)[C@@H]1CCCN(C(=O)OCc3oc(=O)oc3C)C1)N(CCNC(=O)C(F)F)C(=O)C1(CCC1)O2 [Example 44] | 1.9
CCC(=O)NCCN1C(=O)C2(CCC2)Oc2cc(C)c(C(=O)N(C(C)C)C3CCCN(C(=O)OC(OC(=O)C(C)C)C(C)C)C3)cc21 (centres unmarked) [Example 45] | 52
CCC(=O)NCCN1C(=O)C2(CCC2)Oc2cc(C)c(C(=O)N(C(C)C)C3CCCN(C(=O)OC(OC(=O)CC)C(C)C)C3)cc21 (centres unmarked) [Example 46] | 74
CCC(=O)NCCN1C(=O)C2(CCC2)Oc2cc(C)c(C(=O)N(C(C)C)C3CCCN(C(=O)OC(C)OC(=O)C(C)C)C3)cc21 (centres unmarked) [Example 47] | 76
CCC(=O)NCCN1C(=O)C2(CCC2)Oc2cc(C)c(C(=O)N(C(C)C)C3CCCN(C(=O)OC(C)OC(=O)C4CCOCC4)C3)cc21 (centres unmarked) [Example 48] | 340
CCC(=O)NCCN1C(=O)C2(CCC2)Oc2cc(C)c(C(=O)N(C(C)C)C3CCCN(C(=O)OC(C)OC(=O)COC)C3)cc21 (centres unmarked) [Example 49] | 14
CCC(=O)NCCN1C(=O)C2(CCC2)Oc2cc(C)c(C(=O)N(C(C)C)C3CCCN(C(=O)OC(C)OC(=O)CC(C)(C)O)C3)cc21 (centres unmarked) [Example 50] | 15
CCC(=O)NCCN1C(=O)C(C)(C)Oc2cc(C)c(C(=O)N(C(C)C)[C@@H]3CCCN(C(=O)O[C@@H](C)OC(=O)CC)C3)cc21 [Example 52] | 42
CCC(=O)NCCN1C(=O)C(C)(C)Oc2cc(C)c(C(=O)N(C(C)C)[C@@H]3CCCN(C(=O)O[C@H](C)OC(=O)CC)C3)cc21 [Example 53] | 48
CCC(=O)NCCN1C(=O)C(C)(C)Oc2cc(C)c(C(=O)N(C(C)C)C3CCCN(C(=O)OC(C)OC(=O)OC4CCCCC4)C3)cc21 (centres unmarked) [Example 54] | 13
CCC(=O)NCCN1C(=O)C(C)(C)Oc2cc(C)c(C(=O)N(C(C)C)C3CCCN(C(=O)OC(C)OC(=O)c4cccnc4)C3)cc21 (centres unmarked) [Example 59] | 38
CCC(=O)NCCN1C(=O)C(C)(C)Oc2cc(C)c(C(=O)N(C(C)C)C3CCCN(C(=O)OC(C)OC(=O)C4CCOCC4)C3)cc21 (centres unmarked) [Example 60] | 3.2
CCC(=O)NCCN1C(=O)C(C)(C)Oc2cc(C)c(C(=O)N(C(C)C)C3CCCN(C(=O)OC(C)OC(=O)C(N)C(C)C)C3)cc21 (centres unmarked) [Example 62] | 2.8
CCC(=O)NCCN1C(=O)C(C)(C)Oc2cc(C)c(C(=O)N(C(C)C)[C@@H]3CCCN(C(=O)OC(C)OC(=O)CCCO)C3)cc21 (stereo partly drawn) [Example 63, 1-[(4-Hydroxybutanoyl)oxy]ethyl (3R)-3-[isopropyl({2,2,7-trimethyl-3-oxo-4-[2-(propionylamino)ethyl]-3,4-dihydro-2H-1,4-benzoxazin-6-yl}carbonyl)amino]piperidine-1-carboxylate] | 0.96
CCC(=O)NCCN1C(=O)C(C)(C)Oc2cc(C)c(C(=O)N(C(C)C)[C@@H]3CCCN(C(=O)O[C@@H](C)OC(=O)C(C)C)C3)cc21 [Example 66] | 1230
